Read-outs that look alike come from different tables or passages of the source.

Series [1] has as its system ceramide-activated protein kinase.
For series [2] the test system is unchanged. As to the kind of experiment: EGFR peptide phosphorylation by kinase in A-431 microsomal membranes / postnuclear supernatant. It counts as biochemical, human (A-431 epidermoid carcinoma cells). Conditions: words. The protocol: Kinetics of ^32 Pi incorporation into the EGFR peptide. […] The reaction was initiated by addition of 50 μl of [γ-^32 P]ATP (150 μM final concentration) and terminated by addition of 50 μl of 0.5 M ATP in 90% (vol/vol) formic acid. Samples were spotted on phosphocellulose paper, washed with 1 M acetic acid/4 mM pyrophosphate, and ^32 P incorporation was measured by liquid-scintillation counting, as described. A boiled protein blank was subtracted from each data value. The data (means) represent duplicate samples from one of two similar experiments. […]
Kinetics of ceramide-induced ^32 Pi incorporation into EGFR peptide. Peptide phosphorylation was done as described in FIG. 2 in the absence (.smallcircle.) or presence (.circle-solid.) of 0.5 μM C8 -ceramide. Phosphorylated peptide was resolved by HPLC. Values (means) represent data from three experiments.
Concentration-dependence of ceramide-induced ^32 Pi incorporation into EGFR peptide. Peptide phosphorylation reactions were done as described for FIG. 2, for 2 minutes, using various concentrations of ceramide (0.001-3 μM). Phosphorylated peptide was resolved by HPLC. Values (means) represent data from three experiments. […]
Phosphorylation was initiated at 22° C. by addition of 50 μl of [γ-^32 P] ATP (150 μM final concentration; 4000 dpm/pmol). For studies with lipid activators, ceramide and other lipids were dried under N2 and resuspended in the kinase assay buffer by bath sonication for 2 minutes at 37° C.
Phosphorylated peptide was quantified by two separate methods. For initial studies, samples were spotted on phosphocellulose paper, washed in 1 M acetic acid/4 mM pyrophosphate and subjected to liquid scintillation counting, according to methods well known to those skilled in the art. Values obtained from a boiled blank or a sample lacking peptide were subtracted from each determination. Alternatively, HPLC was done according to methods well known to those skilled in the art. For these studies, samples were first applied to a C18 Sep-Pak cartridge and eluted with 99.9% acetonitrile/0.1% trifluoroacetic acid. The eluates were lyophilized, resuspended in 6 M guanidine hydrochloride/200 mM Tris, pH 8.5 and applied to a C18 reverse-phase column (Dynamax, 4.6 mm i.d., Rainin, Woburn, Mass.). The peptide was eluted with a linear gradient (1% per minute) of acetonitrile at a flow rate of 1 ml/minute and was detected by measuring the Cerenkov radiation associated with 1-ml fractions.

The target in another series is T1, KSR (Mus musculus, UniProt Q61097).
T1 sequence (Q61097 1-873): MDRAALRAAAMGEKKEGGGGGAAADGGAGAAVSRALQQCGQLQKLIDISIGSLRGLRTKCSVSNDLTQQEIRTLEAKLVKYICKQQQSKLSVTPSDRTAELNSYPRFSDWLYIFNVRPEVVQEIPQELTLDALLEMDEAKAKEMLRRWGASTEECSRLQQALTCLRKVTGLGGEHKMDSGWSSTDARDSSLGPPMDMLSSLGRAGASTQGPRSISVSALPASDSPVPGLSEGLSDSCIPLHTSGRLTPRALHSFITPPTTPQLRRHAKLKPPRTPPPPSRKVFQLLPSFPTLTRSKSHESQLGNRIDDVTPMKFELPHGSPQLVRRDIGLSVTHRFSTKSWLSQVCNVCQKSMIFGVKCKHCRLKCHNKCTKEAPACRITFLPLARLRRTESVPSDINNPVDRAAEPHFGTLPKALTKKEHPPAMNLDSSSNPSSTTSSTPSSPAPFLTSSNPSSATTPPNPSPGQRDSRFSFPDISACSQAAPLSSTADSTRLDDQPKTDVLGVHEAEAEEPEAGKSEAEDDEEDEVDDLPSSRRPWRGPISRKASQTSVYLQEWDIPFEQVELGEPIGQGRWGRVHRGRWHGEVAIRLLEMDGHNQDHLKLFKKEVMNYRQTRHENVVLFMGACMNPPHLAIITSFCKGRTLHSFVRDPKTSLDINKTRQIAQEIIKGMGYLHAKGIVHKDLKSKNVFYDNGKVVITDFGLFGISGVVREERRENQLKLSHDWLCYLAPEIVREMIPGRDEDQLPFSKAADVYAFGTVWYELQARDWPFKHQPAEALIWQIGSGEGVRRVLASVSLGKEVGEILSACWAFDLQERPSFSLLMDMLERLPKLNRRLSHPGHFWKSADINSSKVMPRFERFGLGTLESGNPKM
The series can be described thus: KSR activity toward Raf-1 peptides in vitro. It counts as biochemical, mouse (KSR immunoprecipitated from COS-7 cells). More on the design: Raf-1 peptides as substrate. Conditions: for KSR activity towards substrate peptide: 30 nM ceramide, 5 min. The method, then: The wild type peptide contains eight potential phosphorylation sites (shown in bold). Substitution of alanines and glycines for serines and threonines generated one peptide (TTLP-peptide) containing only two potential phosphorylation sites (Thr^268,269) and another peptide (AALP-peptide) with no potential phosphorylation sites.
FIG. 28A--Flag-tagged KSR was immunoprecipitated from 0.2 mg COS-7 lysate, and assayed with TTLP- or AALP-peptides in the presence of 30 nM ceramide (Avanti) or diluent (DMSO). Background counts per minute (cpm) derived from samples incubated with the AALP-peptide which contains no phosphorylation sites were subtracted from all points. Background cpm always represented less than 25% of the untreated total.
FIG. 28B--Flag-tagged KSR immunoprecipitated from 0.2 mg COS-7 lysate was assayed with TTLP- or AALP-peptides in the presence of ceramide or diluent for 45 min as described in FIG. 7A.
FIG. 28C--Flag-tagged KSR was immunoprecipitated from 0.15 mg COS-7 lysate and assayed with TTLP- or AALP-peptides for 20 min in the presence of 30 nM of the indicated lipid second messengers as described in FIG. 28A (AA: arachidonic acid; LPA: lyso phosphatidic acid; PMA: phorbol 12-myristate 13-acetate; DAG: 1,2-diacylglycerol).
KSR-bound beads were incubated with reaction buffer B plus 10 mM MnCl2, 5 μM ATP and [γ-^32 P]ATP at 22° C. for the period of time indicated in the presence of 0.3 mM synthetic Raf-peptide or substrate peptides specific for other Ser/Thr protein kinases. […] (SEQ ID NO.3). Substitution of glycines and alanines for serines and threonines generated one peptide (termed TTLP-peptide) containing only two potential phosphorylation sites at Thr^268,269 (in bold), […] (SEQ ID NO. 24), and another peptide (termed AALP-peptide; SEQ ID No.6) with no potential phosphorylation sites, […] (SEQ ID No.25). The amino acid sequences of substrate peptides specific for other protein kinases (Joseph et al., 1993) are: […] (SEQ ID NO.26) (PKA); […] (SEQ ID NO.27) (S6 kinase); […] (SEQ ID NO.28)(CK II); […] (SEQ ID NO.29) (CaM kinase II); and […] (SEQ ID NO.30) (PKC). […] Substrate peptides for PKA and PKC were from Sigma (St. Louis, Mo.). The reaction was stopped by addition of a stop solution containing 0.5 M ATP in 90% formic acid. The beads were removed by centrifugation at 5000×g for 2 min and the supernatant was loaded on P81 Whatman filter paper. The filter was air dried and washed in 4 mM Na2 H2 P2 O7, 1 mM acetic acid for one hour. The filter was baked at 90° C. for 10 min and quantified by Cerenkov counting using a Beckman LS 5000TD scintillation counter. In some experiments, samples were separated by C18 reverse-phase chromatography on HPLC (Mathias et al., 1991) to verify the results of the filter assay. Virtually identical results were obtained with both methods.

The test system of the next series is EL-4 cells. As to the kind of experiment: Sphingomyelin and ceramide levels in intact EL-4 cells. Conditions: maximally effective concentrations (n=5). It counts as cell-based, murine. The protocol:
IL-1β effects on sphingomyelin levels in EL4 cells. Time course (A) and dose response (B). Cells were grown to growth arrest (1-1.5×10^6 cells ml^-1) in DME/Ham's F12 medium (1:1, v/v) containing 10% horse serum and for 48 hours [^3 H]choline (1 μCi ml^-1). On the day of an experiment, cells were resuspended back into the same medium at 10×10^6 cells ml^-1 and stimulated with 40 ng ml^-1 IL-1β for the indicated times (A) or for 30 minutes with increasing concentrations of IL-1β (B). Human IL-1β may be obtained using methods well known to those skilled in the art. Reactions were terminated with CHCl3 :CH3 OH:HCl (100:100:1) containing 10 mM EDTA (82). Lipids in the organic phase extract were dried under N2 and subjected to mild alkaline hydrolysis (0.1 M methanolic KOH for 1 hour at 37° C.) to remove glycerophospholipids. Sphingomyelin was resolved by thin-layer chromatography (TLC) using CHCl3 :CH3 OH:CH3 COOH:H2 O (60:30:8:5) as solvent, identified by iodine vapor staining, and quantified by liquid scintillation spectrometry. As previously reported, the use of [^3 H]choline as a measure of sphingomyelin content was validated by simultaneous phospholipid phosphorus measurements. Each value represents the mean±SEM of triplicate determinations from four experiments in (A), and one representative of four similar studies performed in triplicate in (B).
Effect of IL-1β on ceramide levels in EL-4 cells. Cells were stimulated as in FIG. 12 with IL-1β (40 ng ml^-1) and ceramide contained within the organic phase extract quantified enzymatically using the E. coli diacylglycerol kinase reaction. Lipids were resolved by TLC using CHCl3 :CH3 OH:CH3 COOH (65/15/5) as solvent, autoradiographed and quantified by liquid scintillation spectrometry. Each value represents the mean±SEM of triplicate determinations from 10 experiments.
The murine thymoma EL-4 cell line is a well-defined IL-1 responsive cell line that expresses functional IL-1 receptors. Upon stimulation with IL-1, these cells up-regulate the IL-2 receptor and secrete IL-2 [62]. Initial studies were designed to investigate the effects of IL-1β on cellular sphingomyelin content. Cells, grown in Dulbecco's Modified Eagle's (DME)/Ham's F-12 medium containing 10% horse serum and [^3 H]choline (1 μCi ml^-1), were resuspended back into the same medium at 10×10^6 cells ml^-1 and stimulated with IL-1β. IL-1β is commercially available.

On to `CCCCCCCCCCCCC/C=C/[C@@H](O)[C@H](CO)NC(=O)CCCCCCC` [C8-ceramide, N-octanoylsphingosine], for which the “maximal kinase activity, fold of control” value in series [1] (10 μM C8-cer added to medium) is 1.5 fold of control. For the same compound, the “effect on EGFR peptide phosphorylation” value in series [2] was “similarly effective”.

In the case of “RQRGAGAPNVHMVGAALPVDGRMIE [AALP-peptide]”, the “phosphorylation of peptide by KSR” value with KSR is reported as “negligible”. For concanavalin A, in the series with EL-4 cells, the ceramide response entry is “failed to elicit a ceramide response”. As to “LSSLRASTSKSGGQK [S6 kinase substrate peptide]”, in the series with KSR, the “KSR activity towards substrate peptide” value is “minimal activity”.

Take `CCCCCCCCCCCCCCCC(=O)O` [palmitic acid]: in series [2], the “effect on EGFR peptide phosphorylation” value is listed as “failed to increase EGFR peptide phosphorylation”.

On to “RQRGAGAPNVHMVGTTLPVDGRMIE [TTLP-peptide]”, for which the “phosphorylation of peptide by KSR” value with KSR is on record as “same extent”. “PLARTLSVAGLPGK [CaM kinase II substrate peptide]”: the “KSR activity towards substrate peptide” value in the series with KSR is “minimal activity”. Still for that read-out and setting: then VRKRTLRRL [PKC substrate peptide], with “minimal activity”. With `CNC[C@H](O)c1ccc(O)c(O)c1` [epinephrine], the ceramide response entry in the series on EL-4 cells is “failed to elicit a ceramide response”. On to GRGLSLSR [PKA substrate peptide], for which the “KSR activity towards substrate peptide” value with KSR was “minimal activity”.

Turning to RRREEETEEE [CK II substrate peptide], the “KSR activity towards substrate peptide” value with KSR is recorded as “minimal activity”. Consider `CC1=C(/C=C/C(C)=C/C=C/C(C)=C/C(=O)O)C(C)(C)CCC1` [retinoic acid], for which, in series [1] (cholera toxin 10 nM, retinoic acid 0.5 μM, butyrate 0.5 mM), the “effect on kinase activity in membranes of stimulated HL-60 cells” value was “not stimulated”.

Take cholera toxin: the “effect on kinase activity in membranes of stimulated HL-60 cells” value in series [1] is “not stimulated”. Turning to dihydroceramide, the “activation of KSR” value at KSR is given as “fail to activate KSR”.

The values above are taken from US6040149A, “Assay for identifying agents which act on the ceramide-activated protein kinase, kinase suppressor of ras, and methods of using said agents” (priority 1997, dated 2000).
